Measured values published in ChEMBL document CHEMBL2040823, “A novel class of small-molecule caspase-3 inhibitors prepared by multicomponent reactions” (Eur J Med Chem, 2012).

Biological target: T1, Caspase-3 (Homo sapiens, UniProt P42574)
T1 sequence (P42574 whole entry): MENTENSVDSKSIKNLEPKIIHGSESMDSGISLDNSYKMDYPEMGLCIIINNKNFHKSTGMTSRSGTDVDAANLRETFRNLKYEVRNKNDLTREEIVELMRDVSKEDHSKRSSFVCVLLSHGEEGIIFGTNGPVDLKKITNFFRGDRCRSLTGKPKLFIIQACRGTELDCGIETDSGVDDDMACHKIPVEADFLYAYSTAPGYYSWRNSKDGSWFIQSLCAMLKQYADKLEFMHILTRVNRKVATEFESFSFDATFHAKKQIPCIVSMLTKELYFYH
Assay: Inhibition of human recombinant caspase-3 catalytic domain using Ac-DEVD-pNA as substrate preincubated for 30 mins before substrate addition measured after 3 mins

For `CCCNC1=C(C(=O)OC)CN(c2ccccc2)C1=O`, which IC50 is on record?
The IC50 was > 45 µM.

Which IC50 does the source give for `CCOC(=O)C1=C(Nc2ccccc2)C(=O)N(c2ccccc2)C1` here?
Its IC50 is > 45 µM.

For `CCOC(=O)C1=C(Nc2ccc(F)cc2)C(=O)N(c2ccc(F)cc2)C1`, which IC50 is on record?
Its IC50 is > 45 µM.

With `CCOC(=O)C1=C(NC2CCCCC2)C(=O)N(C2CCCCC2)C1` as the compound, how does the IC50 read?
The IC50 was > 45 µM.

Which IC50 does the source give for `CCCN1C(=O)C(Nc2ccc(Br)cc2)=C(C(=O)OCC)C1c1ccccc1` (centres undefined) here?
Its IC50 is > 45 µM.

Test system: not listed separately
Assay: Octanol-water partition coefficient, log P of the compound by Shake-flask method
Format: physicochemical

With `CCOC(=O)C1=C(Nc2ccc(Br)cc2)C(=O)N(c2ccc(Br)cc2)C1` as the compound, how does the logP read?
Its logP is 1.75.

Which logP does the source give for `CCOC(=O)C1=C(NC2CCCCC2)C(=O)N(c2ccc(Br)cc2)C1` here?
The logP was 1.8.

With `CCOC(=O)C1=C(Nc2ccc(Br)cc2)C(=O)N(C2CCCCC2)C1c1ccccc1` (centres undefined) as the compound, how does the logP read?
The logP was 2.25.

With `CCOC(=O)C1=C(Nc2cccc3ccccc23)C(=O)N(C2CCCCC2)C1c1ccccc1` (centres undefined) as the compound, how does the logP read?
The logP was 2.
